Tests used:
human GR [1] = target: T1, human GR (Homo sapiens, UniProt P04150); assay: Trans-Activation Modulation of Glucocorticoid Receptor (GRAMMER), MMTV-LUC reporter gene; type: cell-based; design: endogenous in cells; conditions: for Emax: A549, read-out: Transactivation A549 Cells GRAMMER Emax (%); for EC50: Table 1, A549 cells, IP = inflection point, read-out: Transactivation A549 Cells GRAMMER IP
T1 sequence (P04150 1-777): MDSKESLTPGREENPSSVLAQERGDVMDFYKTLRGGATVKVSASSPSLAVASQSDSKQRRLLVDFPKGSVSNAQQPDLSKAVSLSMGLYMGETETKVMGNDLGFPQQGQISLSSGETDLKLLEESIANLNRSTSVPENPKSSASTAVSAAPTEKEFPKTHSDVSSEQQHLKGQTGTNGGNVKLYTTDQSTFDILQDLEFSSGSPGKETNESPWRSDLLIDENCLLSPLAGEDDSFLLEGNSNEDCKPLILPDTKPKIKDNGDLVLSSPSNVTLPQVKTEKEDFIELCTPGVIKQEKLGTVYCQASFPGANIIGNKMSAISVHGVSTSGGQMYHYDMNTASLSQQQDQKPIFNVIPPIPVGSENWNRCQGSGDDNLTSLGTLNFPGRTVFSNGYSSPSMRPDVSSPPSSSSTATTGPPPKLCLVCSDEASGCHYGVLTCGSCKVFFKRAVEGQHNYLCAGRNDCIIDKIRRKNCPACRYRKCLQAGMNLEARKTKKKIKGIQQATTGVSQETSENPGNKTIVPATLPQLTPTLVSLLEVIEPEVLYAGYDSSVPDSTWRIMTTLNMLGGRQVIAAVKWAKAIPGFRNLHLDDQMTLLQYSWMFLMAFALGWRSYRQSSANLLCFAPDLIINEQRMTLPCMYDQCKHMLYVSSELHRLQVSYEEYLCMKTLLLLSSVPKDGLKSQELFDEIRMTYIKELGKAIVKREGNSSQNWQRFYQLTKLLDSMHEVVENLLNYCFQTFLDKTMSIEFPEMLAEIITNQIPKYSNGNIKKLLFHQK

human GR [2] = target: T1, human GR; assay: Transrepression Assay (GITAR), TNFα-β-lactamase reporter gene in U937 cells; type: cell-based; design: U937 cells contain an endogenous glucocorticoid receptor (GR); endogenous in cells; host or cells: U937 cells stably transfected with the TNF-α promoter/β-lactamase reporter only; conditions: for EC50: IP = inflection point, read-out: Transrepression U937 Cells GITAR IP; for GITAR > GRAMM % SEP: separation of GITAR Emax over GRAMMER Emax; for Emax: U-937
Summary of the method: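 Reporter readout used CCF2-AM loading for 70–90 min at room temperature after overnight (~18 h, 37 °C) PMA (5 ng/ml final) and LPS (100 ng/ml final) stimulation of compound-treated (30–45 min) TNFα-β-lactamase U937 cells expressing native GR. Activity was normalised to 100 nM dexamethasone repression.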

[3] = 100 nM dexamethasone = 100% activity, read-out: maximal activity in the transrepression assay
[4] = Table 1, U937 cells, activity repressed by 100 nM dexamethasone = 100%, read-out: Transrepression U937 Cells GITAR Emax (%)

Compound	Emax (human GR [1])	EC50 (human GR [1])	EC50 (human GR [2]; Table 1, U937 cells)	GITAR > GRAMM % SEP (human GR [2]; Table 1)	Emax (human GR [2]; [3])	Emax (human GR [2]; [4])
C[C@]12Cc3cnn(-c4ccc(F)cc4)c3C=C1CC[C@@]2(O)CCc1ccccc1CC(N)=O [Example 107, 2-(2-{2-[(4αS,5R)-1-(4-fluorophenyl)-5-hydroxy-4α-methyl-1,4,4α,5,6,7-hexahydrocyclopenta[f]indazol-5-yl]ethyl}phenyl)acetamide]	37%	261 nM	217 nM	29%	5 to 100%	66%
CN(C)S(=O)(=O)Nc1c(F)cccc1CC[C@]1(O)CCC2=Cc3c(cnn3-c3ccc(F)cc3)C[C@@]21C [Example 113, N′-(2-fluoro-6-{2-[(4αS,5R)-1-(4-fluorophenyl)-5-hydroxy-4α-methyl-1,4,4α,5,6,7-hexahydrocyclopenta[f]indazol-5-yl]ethyl}phenyl)-N,N-dimethylsulfamide]	32%	205 nM	207 nM	39%	5 to 100%	71%
CCS(=O)(=O)Nc1ccccc1CC[C@]1(O)CCC2=Cc3c(cnn3-c3ccc(F)cc3)C[C@@]21C [Example 114, N-(2-{2-[(4αS,5R)-1-(4-fluorophenyl)-5-hydroxy-4α-methyl-1,4,4α,5,6,7-hexahydrocyclopenta[f]indazol-5-yl]ethyl}phenyl)ethanesulfonamide]	43%	221 nM	199 nM	34%	5 to 100%	78%
CN(C)S(=O)(=O)c1ccccc1CC[C@]1(O)CCC2=Cc3c(cnn3-c3ccc(F)cc3)C[C@@]21C [Example 138, 2-{2-[(4αS,5R)-1-(4-fluorophenyl)-5-hydroxy-4α-methyl-1,4,4α,5,6,7-hexahydrocyclopenta[f]indazol-5-yl]ethyl}-N,N-dimethylbenzenesulfonamide]	55%	137 nM	212 nM	17%	5 to 100%	72%
C[C@]12Cc3cnn(-c4ccc(F)cc4)c3C=C1CC[C@@]2(O)CCc1ccccc1S(=O)(=O)C1CC1 [Example 144, (4αS,5R)-5-{2-[2-(cyclopropylsulfonyl)phenyl]ethyl}-1-(4-fluorophenyl)-4α-methyl-1,4,4α,5,6,7-hexahydrocyclopenta[f]indazol-5-ol]	40%	268 nM	212 nM		5 to 100%	70%
C[C@]12Cc3cnn(-c4ccc(F)cc4)c3C=C1CC[C@@]2(O)CCc1cccc(F)c1[C@H](N)C(F)(F)F [Example 151, (4αS,5R)-5-(2-{2-[(1S)-1-amino-2,2,2-trifluoroethyl]-3-fluorophenyl}ethyl)-1-(4-fluorophenyl)-4α-methyl-1,4,4α,5,6,7-hexahydrocyclopenta[f]indazol-5-ol]	43%	170 nM	207 nM	33%	5 to 100%	76%
C[C@]12Cc3cnn(-c4ccc(F)cc4)c3C=C1CC[C@@]2(O)CCc1cccc(F)c1[C@@H](N)C(F)(F)F [Example 152, (4αS,5R)-5-(2-{2-[(1R)-1-amino-2,2,2-trifluoroethyl]-3-fluorophenyl}ethyl)-1-(4-fluorophenyl)-4α-methyl-1,4,4α,5,6,7-hexahydrocyclopenta[f]indazol-5-ol]	44%	223 nM	247 nM	34%	5 to 100%	77%
C[C@]12Cc3cnn(-c4ccc(F)cc4)c3C=C1CC[C@@]2(O)CCc1ccccc1C(=O)N1CC(=O)C1 [Example 156, 1-(2-{2-[(4αS,5R)-1-(4-fluorophenyl)-5-hydroxy-4α-methyl-1,4,4α,5,6,7-hexahydrocyclopenta[f]indazol-5-yl]ethyl}benzoyl)azetidin-3-one]	47%	278 nM	189 nM	22%	5 to 100%	69%
CC(=O)Cc1ccccc1CC[C@]1(O)CCC2=Cc3c(cnn3-c3ccc(F)cc3)C[C@@]21C [Example 157, 1-(2-{2-[(4αS,5R)-1-(4-fluorophenyl)-5-hydroxy-4α-methyl-1,4,4α,5,6,7-hexahydrocyclopenta[f]indazol-5-yl]ethyl}phenyl)acetone]	45%	240 nM	194 nM	18%	5 to 100%	63%
C[C@]12Cc3cnn(-c4ccc(F)cc4)c3C=C1CC[C@@]2(O)CCc1ccc(F)cc1C(N)=O [Example 159, 5-fluoro-2-{2-[(4αS,5R)-1-(4-fluorophenyl)-5-hydroxy-4α-methyl-1,4,4α,5,6,7-hexahydrocyclopenta[f]indazol-5-yl]ethyl}benzamide]	37%	197 nM	125 nM	36%	5 to 100%	73%

Stronger by EC50 (human GR [1]), values ahead:

Emax (human GR [1])	EC50 (human GR [1])	EC50 (human GR [2]; Table 1, U937 cells)	GITAR > GRAMM % SEP (human GR [2]; Table 1)	Emax (human GR [2]; [3])	Emax (human GR [2]; [4])	Compound
20%	43 nM	64 nM	50%	5 to 100%	70%	CN(C)S(=O)(=O)NCc1c(F)cccc1CC[C@]1(O)CCC2=Cc3c(cnn3-c3ccc(F)cc3)C[C@@]21C [Example 89, N′-(2-fluoro-6-{2-[(4αS,5R)-1-(4-fluorophenyl)-5-hydroxy-4α-methyl-1,4,4α,5,6,7-hexahydrocyclopenta[f]indazol-5-yl]ethyl}benzyl)-N,N-dimethylsulfamide]
46%	121 nM	231 nM	26%		72%	C[C@]12Cc3cnn(-c4ccc(F)cc4)c3C=C1CC[C@@]2(O)CCc1ccccc1C1(NS(=O)(=O)C2CC2)CC1 [Example 91, N-[1-(2-{2-[(4αS,5R)-1-(4-fluorophenyl)-5-hydroxy-4α-methyl-1,4,4α,5,6,7-hexahydrocyclopenta[f]indazol-5-yl]ethyl}phenyl)cyclopropyl]cyclopropanesulfonamide]
41%	118 nM	194 nM	29%	5 to 100%	70%	CCS(=O)(=O)c1ccccc1CC[C@]1(O)CCC2=Cc3c(cnn3-c3ccc(F)cc3)C[C@@]21C [Example 143, (4αS,5R)-5-{2-[2-(ethylsulfonyl)phenyl]ethyl}-1-(4-fluorophenyl)-4α-methyl-1,4,4α,5,6,7-hexahydrocyclopenta[f]indazol-5-ol]
57%	43 nM	46 nM	18%	5 to 100%	75%	C[C@]12Cc3cnn(-c4ccc(F)cc4)c3C=C1CC[C@@]2(O)CCc1cccc(F)c1CO [Example 148, (4αS,5R)-5-{2-[3-fluoro-2-(hydroxymethyl)phenyl]ethyl}-1-(4-fluorophenyl)-4α-methyl-1,4,4α,5,6,7-hexahydrocyclopenta[f]indazol-5-ol]
48%	103 nM	299 nM	23%	5 to 100%	70%	C[C@]12Cc3cnn(-c4ccc(F)cc4)c3C=C1CC[C@@]2(O)CCc1ccc(F)cc1C#N [Example 163, 5-fluoro-2-{2-[(4αS,5R)-1-(4-fluorophenyl)-5-hydroxy-4α-methyl-1,4,4α,5,6,7-hexahydrocyclopenta[f]indazol-5-yl]ethyl}benzonitrile]
58%	53 nM	52 nM	19%	5 to 100%	77%	C[C@]12Cc3cnn(-c4ccc(F)c(F)c4)c3C=C1CC[C@@]2(O)CCc1cccc(F)c1C(N)=O [Example 168, 2-{2-[(4α,5R)-1-(3,4-difluorophenyl)-5-hydroxy-4α-methyl-1,4,4α,5,6,7-hexahydrocyclopenta[f]indazol-5-yl]ethyl}-6-fluorobenzamide]

Source: US8119681B2, “2-[1-phenyl-5-hydroxy or methoxy-4alpha-methyl-hexahydrocyclopenta [ƒ]indazole-5-YL]ethyl phenyl derivatives as glucocorticoid receptor ligands” (Merck Sharp & Dohme Corp., priority 2006, dated 2012)
